Measurements published in US10392368B2, “Pyrazolo and triazolo bicyclic compounds as JAK kinase inhibitors” (THERAVANCE BIOPHARMA R&D IP, LLC, priority 2017, dated 2019).
Read-outs that look alike come from different tables or passages of the source.

Key:
[1] = target: T1, JAK2 (Homo sapiens, UniProt O60674); assay: Biochemical JAK2 kinase assay (LanthaScreen)
T1 construct: GST; purchased Life Technologies
Method: A panel of four LanthaScreen JAK biochemical assays (JAK1, 2, 3 and Tyk2) were carried in a common kinase reaction buffer (50 mM HEPES, pH 7.5, 0.01% Brij-35, 10 mM MgCl2, and 1 mM EGTA). Recombinant GST-tagged JAK enzymes and a GFP-tagged STAT1 peptide substrate were obtained from Life Technologies.
Serially or discretely diluted compounds were pre-incubated with each of the four JAK enzymes and the substrate in white 384-well microplates (Corning) at ambient temperature for 1 h. ATP was subsequently added to initiate the kinase reactions in 10 μL total volume, with 1% DMSO. […] Kinase reactions were allowed to proceed for 1 hour at ambient temperature before a 10 μL preparation of EDTA (10 mM final concentration) and Tb-anti-pSTAT1 (pTyr701) antibody (Life Technologies, 2 nM final concentration) in TR-FRET dilution buffer (Life Technologies) was added. The plates were allowed to incubate at ambient temperature for 1 h before being read on the EnVision reader (Perkin Elmer).
For dose-response analysis, percent inhibition data were plotted vs. compound concentrations, and IC50 values were determined from a 4-parameter robust fit model with the Prism software (GraphPad Software). Results were expressed as pIC50 (negative logarithm of IC50) and subsequently converted to pKi (negative logarithm of dissociation constant, Ki) using the Cheng-Prusoff equation.

[2] = target: T2, JAK3 (Homo sapiens, UniProt P52333); assay: Biochemical JAK3 kinase assay (LanthaScreen); set-up: GST; purchased Life Technologies; settings: for Ki: read-out: JAK 3 (pKi) (converted)
T2 sequence (P52333 1-1124): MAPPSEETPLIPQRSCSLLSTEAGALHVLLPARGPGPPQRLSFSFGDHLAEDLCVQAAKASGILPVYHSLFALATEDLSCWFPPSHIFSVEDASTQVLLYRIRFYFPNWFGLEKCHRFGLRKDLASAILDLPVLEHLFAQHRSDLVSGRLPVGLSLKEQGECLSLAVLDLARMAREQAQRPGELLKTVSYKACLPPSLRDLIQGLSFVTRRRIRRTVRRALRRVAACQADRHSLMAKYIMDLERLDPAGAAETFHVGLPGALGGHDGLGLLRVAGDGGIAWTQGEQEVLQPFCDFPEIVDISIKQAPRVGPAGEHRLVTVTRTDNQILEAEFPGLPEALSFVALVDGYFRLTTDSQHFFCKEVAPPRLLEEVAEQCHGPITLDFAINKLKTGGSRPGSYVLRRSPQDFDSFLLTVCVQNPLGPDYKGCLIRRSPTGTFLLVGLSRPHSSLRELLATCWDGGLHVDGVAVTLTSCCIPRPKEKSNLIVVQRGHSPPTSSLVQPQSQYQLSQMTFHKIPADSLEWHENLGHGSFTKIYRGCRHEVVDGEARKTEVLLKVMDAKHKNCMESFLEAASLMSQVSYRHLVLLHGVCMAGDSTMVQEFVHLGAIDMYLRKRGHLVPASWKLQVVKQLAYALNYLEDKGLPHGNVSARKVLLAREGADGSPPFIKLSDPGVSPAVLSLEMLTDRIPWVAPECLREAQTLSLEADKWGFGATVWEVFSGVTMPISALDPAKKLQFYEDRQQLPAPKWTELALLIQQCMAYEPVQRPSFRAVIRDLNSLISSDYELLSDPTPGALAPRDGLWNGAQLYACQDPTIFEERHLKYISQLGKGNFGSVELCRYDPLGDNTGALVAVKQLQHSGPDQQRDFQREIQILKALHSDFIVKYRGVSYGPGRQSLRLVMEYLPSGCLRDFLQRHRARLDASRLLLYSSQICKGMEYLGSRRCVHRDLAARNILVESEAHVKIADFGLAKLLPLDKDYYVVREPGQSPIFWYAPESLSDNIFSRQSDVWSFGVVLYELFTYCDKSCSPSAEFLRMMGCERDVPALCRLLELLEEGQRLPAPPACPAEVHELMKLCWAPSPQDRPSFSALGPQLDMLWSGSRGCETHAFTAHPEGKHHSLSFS
Method in brief: (§1)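 TR-FRET read-out: terbium anti-pSTAT1 (pTyr701) antibody, 2 nM, with 10 mM EDTA quench, emission ratio 520/495 nm. GST-JAK phosphorylates GFP-STAT1 peptide for 1 h at ambient temperature after 1 h compound pre-incubation. pIC50 from dose-response converted to pKi by Cheng-Prusoff.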

[3] = target: T3, JAK1 (Homo sapiens, UniProt P23458); assay: Biochemical JAK1 kinase assay (LanthaScreen); settings: for Ki: read-out: JAK 1 (pKi) (converted)
T3 construct: GST; purchased Life Technologies
Method in brief: as §1

[4] = tested on: IL-2 stimulated pSTAT5 in Tall-1 T cells; assay: Cellular JAK3 potency assay: inhibition of IL-2 stimulated pSTAT5 in Tall-1 T cells; format: cell-based, human; settings: for Tall-1 (pIC50): IL-2 stimulated pSTAT5, Tall-1 T cells; for IC50: Homo sapiens, read-out: Tall-1 (pIC50) (converted)
Method in brief: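 Tall-1 human T cells (45,000/well) in phenol red-free DMEM with 10% FBS were preincubated with compound 1 h at 37 °C, then stimulated with IL-2 (final 300 ng/ml) for 30 min. Lysate pSTAT5 read by AlphaLisa; IC50 from inhibition curves, reported as pIC50 (mean±SD).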

[5] = selectivity: difference of pKi JAK3 and pKi JAK1
[6] = selectivity JAK3 over JAK1, difference of pKi
[7] = TALL-1, IL-2 stimulated pSTAT5 in Tall-1 T cells
[8] = TALL-1, IL-2 stimulated pSTAT5, Tall-1 T cells

T3 sequence (P23458 whole entry): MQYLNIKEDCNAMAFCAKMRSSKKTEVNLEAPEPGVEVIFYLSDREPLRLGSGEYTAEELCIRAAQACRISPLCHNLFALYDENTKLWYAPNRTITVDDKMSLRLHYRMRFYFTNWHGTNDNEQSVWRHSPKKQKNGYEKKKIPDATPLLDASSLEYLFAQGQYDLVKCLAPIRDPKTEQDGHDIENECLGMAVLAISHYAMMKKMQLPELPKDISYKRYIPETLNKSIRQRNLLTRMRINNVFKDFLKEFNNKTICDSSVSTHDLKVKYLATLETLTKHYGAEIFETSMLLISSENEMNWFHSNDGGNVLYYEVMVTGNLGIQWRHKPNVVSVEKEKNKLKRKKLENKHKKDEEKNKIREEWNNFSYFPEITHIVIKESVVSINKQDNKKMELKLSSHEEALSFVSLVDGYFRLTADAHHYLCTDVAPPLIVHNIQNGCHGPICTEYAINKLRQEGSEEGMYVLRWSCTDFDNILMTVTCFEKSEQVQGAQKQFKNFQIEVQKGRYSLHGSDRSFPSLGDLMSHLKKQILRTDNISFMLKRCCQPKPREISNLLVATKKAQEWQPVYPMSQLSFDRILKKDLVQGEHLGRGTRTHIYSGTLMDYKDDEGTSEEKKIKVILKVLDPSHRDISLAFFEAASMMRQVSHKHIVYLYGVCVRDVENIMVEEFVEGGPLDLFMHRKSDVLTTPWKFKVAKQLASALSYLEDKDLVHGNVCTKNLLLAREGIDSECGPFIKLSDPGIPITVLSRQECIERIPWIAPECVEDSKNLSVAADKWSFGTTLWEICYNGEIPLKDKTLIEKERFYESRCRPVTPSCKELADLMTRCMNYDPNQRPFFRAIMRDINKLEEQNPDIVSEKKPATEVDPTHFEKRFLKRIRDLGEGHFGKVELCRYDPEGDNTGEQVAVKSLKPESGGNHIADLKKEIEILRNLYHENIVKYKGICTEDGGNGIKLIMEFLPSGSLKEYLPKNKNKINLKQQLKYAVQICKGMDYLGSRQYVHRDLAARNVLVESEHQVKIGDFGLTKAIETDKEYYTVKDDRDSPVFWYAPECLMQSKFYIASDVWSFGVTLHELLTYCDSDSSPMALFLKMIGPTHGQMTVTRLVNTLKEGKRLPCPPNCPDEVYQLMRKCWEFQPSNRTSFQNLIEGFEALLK
T1 sequence (O60674 whole entry): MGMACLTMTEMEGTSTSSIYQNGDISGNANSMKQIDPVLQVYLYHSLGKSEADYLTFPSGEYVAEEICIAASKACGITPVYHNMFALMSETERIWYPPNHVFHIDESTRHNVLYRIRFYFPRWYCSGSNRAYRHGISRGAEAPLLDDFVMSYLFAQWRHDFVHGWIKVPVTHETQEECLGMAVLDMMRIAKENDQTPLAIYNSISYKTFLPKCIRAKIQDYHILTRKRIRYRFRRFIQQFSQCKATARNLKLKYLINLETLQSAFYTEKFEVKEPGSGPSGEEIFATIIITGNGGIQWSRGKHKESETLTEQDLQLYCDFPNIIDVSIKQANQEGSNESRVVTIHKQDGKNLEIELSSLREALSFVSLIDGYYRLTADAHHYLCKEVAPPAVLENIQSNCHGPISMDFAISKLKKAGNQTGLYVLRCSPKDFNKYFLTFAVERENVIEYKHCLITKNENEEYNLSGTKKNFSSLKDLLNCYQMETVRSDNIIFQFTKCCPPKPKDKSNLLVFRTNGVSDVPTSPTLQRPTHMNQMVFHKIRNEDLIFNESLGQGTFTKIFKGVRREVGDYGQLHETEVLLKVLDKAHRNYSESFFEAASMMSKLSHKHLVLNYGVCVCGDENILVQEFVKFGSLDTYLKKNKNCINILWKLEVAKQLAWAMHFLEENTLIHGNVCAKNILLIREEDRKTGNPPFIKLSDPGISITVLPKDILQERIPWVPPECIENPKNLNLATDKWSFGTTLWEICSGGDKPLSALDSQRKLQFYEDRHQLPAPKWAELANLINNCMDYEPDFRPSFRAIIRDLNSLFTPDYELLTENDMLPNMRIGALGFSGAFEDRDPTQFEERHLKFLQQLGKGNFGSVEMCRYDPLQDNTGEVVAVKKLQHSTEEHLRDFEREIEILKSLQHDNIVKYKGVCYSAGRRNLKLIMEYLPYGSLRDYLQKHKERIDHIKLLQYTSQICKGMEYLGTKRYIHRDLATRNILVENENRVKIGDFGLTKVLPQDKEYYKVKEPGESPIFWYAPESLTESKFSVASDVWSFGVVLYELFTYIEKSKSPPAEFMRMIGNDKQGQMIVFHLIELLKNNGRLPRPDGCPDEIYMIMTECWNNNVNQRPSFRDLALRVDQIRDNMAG

| Structure (SMILES) | JAK 2 (pKi) [1] | JAK 3 (pKi) [2] | JAK3 (pKi)-JAK1 (pKi) [2, 5] | JAK 1 (pKi) [3] | Tall-1 (pIC50) [4] | JAK3 (pKi)-JAK1 (pKi) [2, 6] | Ki [3] [nM] | IC50 [4, 7] [nM] | Ki [2] [nM] | IC50 [4, 8] [nM] |
| --- | --- | --- | --- | --- | --- | --- | --- | --- | --- | --- |
| C=CC(=O)N1CC(C(C)Oc2nc(-c3ccc(O)cc3)nc3[nH]ncc23)C1 (centres unmarked) [Compound 3-78] | E (a pKi value of 7 or below (Ki of 100 nM or above)) | B (a pKi value between 9 and 10 (Ki between 1 nM and 0.1 nM)) | A (a value of 3 or above) |  |  |  |  |  |  |  |
| C=CC(=O)N1CCC(COc2nc(-c3ccc(O)cc3)cc3[nH]ncc23)CC1 [Compound 14-6] |  | A (a pKi value≥10 (Ki≤0.1 nM)) |  | D (a pKi value between 7 and 8 (Ki between 100 nM and 10 nM)) | A (a pIC50 value≥7.5 (IC50≤32 nM)) | B (a value of 2.3 to 3) |  |  |  |  |
| CN(C)C/C=C/C(=O)N1CCO[C@H](C(=O)Nc2cc(-c3ccc(O)cc3)cc3[nH]ncc23)C1 [Compound 11-2] |  | B (a pKi value between 9 and 10 (Ki between 1 nM and 0.1 nM)) |  | E (a pKi value of 7 or below (Ki of 100 nM or above)) | C (a pIC50 value between 6 and 6.7 (IC50 between 1 μM and 200 nM)) | A (a value of 3 or above) |  |  |  |  |
| CN(C)C/C=C/C(=O)N1CC[C@H](Oc2cc(-c3ccc(O)c(Cl)c3)cc3[nH]ncc23)C1 [Compound 1-3] |  |  | A (a value of 3 or above) |  |  |  | > 100 | 31.6 to 200 | 0.1 to 1 |  |
| C=CC(=O)N1C2CCC1CC(Oc1nc(-c3ccc(O)c(F)c3)cc3[nH]ncc13)C2 (centres unmarked) [Compound 9-10] |  | B (a pKi value between 9 and 10 (Ki between 1 nM and 0.1 nM)) |  | E (a pKi value of 7 or below (Ki of 100 nM or above)) | A (a pIC50 value≥7.5 (IC50≤32 nM)) | A (a value of 3 or above) |  |  |  |  |
| C=CC(=O)N1CCC[C@@H](C(=O)Nc2cc(-c3ccc(O)cc3)cc3[nH]ncc23)C1 [Compound 12-55] |  |  |  |  |  | A (a value of 3 or above) | > 100 |  | < 0.1 | 31.6 to 200 |
| CN(C)C/C=C/C(=O)N1CC2(CC(Oc3cc(-c4ccc(O)cc4)cc4[nH]ncc34)C2)C1 [Compound 12-52] |  |  |  |  |  | B (a value of 2.3 to 3) | 10 to 100 |  | 0.1 to 1 | 200 to 1000 |
| CN(C)C/C=C/C(=O)N1CCC(Oc2cc(-c3ccc(O)cc3)cc3[nH]ncc23)CC1 [Compound 6-1] |  |  |  |  |  | B (a value of 2.3 to 3) | 10 to 100 |  | < 0.1 | 31.6 to 200 |
| C=CC(=O)N1CCC(Nc2cc(-c3ccc(O)cc3)cc3[nH]ncc23)C(F)(F)C1 (centres unmarked) [Compound 7-6] |  | A (a pKi value≥10 (Ki≤0.1 nM)) |  | D (a pKi value between 7 and 8 (Ki between 100 nM and 10 nM)) | A (a pIC50 value≥7.5 (IC50≤32 nM)) | B (a value of 2.3 to 3) |  |  |  |  |
| C=CC(=O)N1CC[C@H](Oc2cc(-c3ccc(O)c(F)c3)cc3[nH]nc(C)c23)C1 [Compound 1-23] |  |  | B (a value of 2.3 to 3) |  |  |  | 10 to 100 | < 31.6 | 0.1 to 1 |  |
| CN(C)CC=CC(=O)N1C2CCC1CC(Oc1cc(-c3ccc(O)c(Cl)c3)cc3[nH]ncc13)C2 (centres unmarked) [Compound 9-3] |  | B (a pKi value between 9 and 10 (Ki between 1 nM and 0.1 nM)) |  | E (a pKi value of 7 or below (Ki of 100 nM or above)) | C (a pIC50 value between 6 and 6.7 (IC50 between 1 μM and 200 nM)) | C (a value of 1.8 to 2.3) |  |  |  |  |
| C=CC(=O)N1CC2(CCC2Oc2nc(-c3ccc(O)c(F)c3)nc3[nH]ncc23)C1 (centres unmarked) [Compound 13-18] |  | B (a pKi value between 9 and 10 (Ki between 1 nM and 0.1 nM)) |  | E (a pKi value of 7 or below (Ki of 100 nM or above)) | B (a pIC50 value between 6.7 (included) and 7.5 (IC50 between 200 nM and 32 nM)) | A (a value of 3 or above) |  |  |  |  |
| C=CC(=O)N1CCCC(C(=O)Nc2cc(-c3ccc(O)cc3)cc3[nH]ncc23)C1 (centres unmarked) [Compound 12-40] |  |  |  |  |  | B (a value of 2.3 to 3) | > 100 |  | 0.1 to 1 | 200 to 1000 |
| CN(C)C/C=C/C(=O)N1CCC(COc2nc(-c3ccc(O)c(F)c3)cc3[nH]ncc23)CC1 [Compound 14-11] |  | B (a pKi value between 9 and 10 (Ki between 1 nM and 0.1 nM)) |  | D (a pKi value between 7 and 8 (Ki between 100 nM and 10 nM)) | C (a pIC50 value between 6 and 6.7 (IC50 between 1 μM and 200 nM)) | B (a value of 2.3 to 3) |  |  |  |  |
| C=CC(=O)N1CCC(Oc2nc(-c3ccc(O)c(F)c3)nc3[nH]ncc23)CC1 [Compound 6-23] |  |  |  |  |  | A (a value of 3 or above) | > 100 |  | 0.1 to 1 | 200 to 1000 |
| C=CC(=O)N1CC[C@H](Oc2cc(-c3ccc(O)cc3)cc3[nH]nc(N(C)C)c23)C1 [Compound 1-42] |  |  | A (a value of 3 or above) |  |  |  | > 100 | 200 to 1000 | 0.1 to 1 |  |
| C=CC(=O)N1CC[C@H](Oc2cc(-c3ccc(O)cc3)cc3[nH]nc(SC)c23)C1 [Compound 1-39] |  |  | A (a value of 3 or above) |  |  |  | > 100 | 31.6 to 200 | 0.1 to 1 |  |
| C=CC(=O)N1CC(COc2cc(-c3ccc(O)cc3)cc3[nH]nc(Cl)c23)C1 [Compound 18-14] |  | B (a pKi value between 9 and 10 (Ki between 1 nM and 0.1 nM)) |  | E (a pKi value of 7 or below (Ki of 100 nM or above)) | B (a pIC50 value between 6.7 (included) and 7.5 (IC50 between 200 nM and 32 nM)) | A (a value of 3 or above) |  |  |  |  |
| C=CC(=O)N1CC2(CC(Oc3cc(-c4ccc(O)cc4)cc4[nH]ncc34)C2)C1 [Compound 12-21] |  |  |  |  |  | B (a value of 2.3 to 3) | > 100 |  | 0.1 to 1 | < 31.6 |
| C=CC(=O)N1CCC(Oc2cc(-c3ccc(O)c(F)c3)cc3[nH]ncc23)CC1 [Compound 6-14] |  |  |  |  |  | B (a value of 2.3 to 3) | 10 to 100 |  | < 0.1 | < 31.6 |
| CN(C)C/C=C/C(=O)N1CC(COc2cc(-c3c(F)cc(O)cc3F)cc3[nH]ncc23)C1 [Compound 18-2] |  |  |  |  |  | C (a value of 1.8 to 2.3) | 10 to 100 |  | < 0.1 | < 31.6 |
